In US9302999B2, “Substituted triazoles as herbicides” (E. I. DU PONT DE NEMOURS AND COMPANY, priority 2012, dated 2016):

Assays:
[1] = system: barnyardgrass (Echinochloa crus-galli); assay: Test C pre-/postemergence: barnyardgrass; type: in vivo; settings: scale 0 to 100, 0 no effect, 100 complete control
Barnyardgrass [2] = assay: Test C preemergence: barnyardgrass; type: in vivo, Echinochloa crus-galli
Oilseed Rape [3] = assay: Test C preemergence: oilseed rape; type: in vivo; settings: scale of 0 to 100, 0 is no effect, 100 is complete control
Oilseed Rape [4] = assay: Test C postemergence: oilseed rape; type: in vivo; settings: scale 0 to 100 (0 no effect, 100 complete control)
How it was run: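 Response values are visual ratings, 0 (no effect) to 100 (complete control), made by comparison with untreated controls 13 to 15 days after postemergence treatment of greenhouse-grown potted plants that were 2 to 18 cm high at spraying.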

Waterhemp = assay: Test C pre-/postemergence: waterhemp; type: in vivo; settings: Postemergence
Barnyardgrass [5] = assay: Test C postemergence: barnyardgrass; type: in vivo, Echinochloa crus-galli
Text: At the same time, plants selected from these crop and weed species and also barley (winter barley, Hordeum vulgare), canarygrass (Phalaris minor), chickweed (common chickweed, Stellaria media) windgrass (Apera spica-venti) and deadnettle (henbit deadnettle, Lamium amplexicaule) were planted in pots containing Redi-Earth® planting medium (Scotts Company, 14111 Scottslawn Road, Marysville, Ohio 43041) comprising spaghnum peat moss, vermiculite, wetting agent and starter nutrients and treated with postemergence applications of test chemicals formulated in the same manner. Plants ranged in height from 2 to 18 cm (1- to 4-leaf stage) for postemergence treatments.
Treated plants and controls were maintained in a greenhouse for 13 to 15 days, after which time all species were compared to controls and visually evaluated. Plant response ratings, summarized in Table C, are based on a scale of 0 to 100 where 0 is no effect and 100 is complete control. A dash (-) response means no test result.

Oilseed Rape [6] = assay: Test C postemergence: oilseed rape; type: in vivo, Brassica napus
Barnyardgrass [7] = assay: Test C postemergence: barnyardgrass; type: in vivo, Echinochloa crus-galli; settings: 125 g ai/ha, scale 0 to 100, 0 no effect, 100 complete control
[8] = 62 g ai/ha, scale of 0 to 100, 0 is no effect, 100 is complete control
[9] = 125 g ai/ha, scale 0 to 100, 0 no effect, 100 complete control
[10] = 31 g ai/ha, scale 0 to 100 (0 no effect, 100 complete control)
[11] = 62 g ai/ha, scale 0 to 100 (0 no effect, 100 complete control)
[12] = 31 g ai/ha, scale 0 (no effect) to 100 (complete control)
[13] = 250 g ai/ha, scale 0 to 100 (0 no effect, 100 complete control)

Structure (SMILES) | Plant response rating, Barnyardgrass ([1]; Postemergence, 16 g ai/ha) | Plant response rating, Barnyardgrass (Barnyardgrass [2]; 16 g ai/ha, scale 0 (no effect) to 100 (complete control)) | Plant response rating, Barnyardgrass (Barnyardgrass [2]; 31 g ai/ha, scale of 0 to 100, 0 is no effect, 100 is complete control) | Plant response rating, Barnyardgrass (Barnyardgrass [2]; [8]) | Plant response rating, Barnyardgrass (Barnyardgrass [2]; [9]) | Plant response rating, Oilseed Rape (Oilseed Rape [3]; 31 g ai/ha) | Plant response rating, Oilseed Rape (Oilseed Rape [3]; 62 g ai/ha) | Plant response rating, Oilseed Rape (Oilseed Rape [4]; 31 g ai/ha) | Plant response rating, Oilseed Rape (Oilseed Rape [4]; 62 g ai/ha) | Plant response rating, Waterhemp (Waterhemp; 16 g ai/ha, scale 0 to 100, 0 no effect, 100 complete control) | Plant response rating, Barnyardgrass (Barnyardgrass [5]; [10]) | Plant response rating, Barnyardgrass (Barnyardgrass [5]; [11]) | Plant response rating, Oilseed Rape (Oilseed Rape [6]; [9]) | Plant response rating, Barnyardgrass (Barnyardgrass [7]) | Plant response rating, Barnyardgrass ([1]; Preemergence, 250 g ai/ha) | Plant response rating, Barnyardgrass (Barnyardgrass [2]; [12]) | Plant response rating, Waterhemp (Waterhemp; [10]) | Plant response rating, Barnyardgrass (Barnyardgrass [5]; 250 g ai/ha, scale 0 to 100) | Plant response rating, Oilseed Rape (Oilseed Rape [6]; [13])
FCc1nn(-c2ccc(F)cc2)nc1Oc1ccnc(C(F)(F)F)c1 [Compound 160] | 15 | 5 | 35 | 90 | 100 | 5 | 80 | 95 | 95 | 95 | 20 | 30 | 95 | 35 |  |  |  |  | 
CCCc1nn(-c2ccc(F)cc2)nc1Oc1ccnc(C(F)(F)F)c1 [Compound 168] |  |  |  | 100 | 100 |  | 100 |  | 70 |  | 40 | 75 | 90 | 90 | 100 | 75 | 80 | 95 | 95
CCc1nn(-c2ccc(C(F)(F)F)cc2)nc1Oc1ccnc(C(F)(F)F)c1 [Compound 169] |  |  |  | 80 | 98 |  | 98 |  | 40 |  | 15 | 25 | 40 | 75 | 100 | 40 | 75 | 85 | 60
CCCc1nn(-c2ccc(C(F)(F)F)cc2)nc1Oc1ccnc(C(F)(F)F)c1 [Compound 170] |  |  |  | 98 | 100 |  | 95 |  | 50 |  | 20 | 55 | 50 | 85 | 100 | 80 | 85 | 95 | 85
CCc1nn(-c2ccc(F)c(F)c2)nc1Oc1ccnc(C(F)(F)F)c1 [Compound 171] |  |  |  | 75 | 95 |  | 50 |  | 20 |  | 10 | 15 | 30 | 60 | 98 | 5 | 70 | 75 | 30
CCCc1nn(-c2ccc(F)c(F)c2)nc1Oc1ccnc(C(F)(F)F)c1 [Compound 172] |  |  |  | 98 | 100 |  | 90 |  | 90 |  | 40 | 45 | 90 | 85 | 100 | 85 | 90 | 90 | 95
